For experiment [1], the system named is Spinal Nerve Ligation (SNL) Model of Neuropathic Pain. Put plainly: Spinal Nerve Ligation (SNL) model of neuropathic pain, tactile hypersensitivity. Type of experiment: in vivo, rat. Conditions: 30 mg/kg IP, 30-300 minutes after administration, FIG. 7. An excerpt: Subjects. Male Sprague-Dawley rats (Indianapolis, Ind.) weighing 150 to 200 g at time of arrival, were individually housed in wire cages in a climate-controlled room. A 12-hour light/dark cycle (lights on at 0630) was in effect, and food and water were available ad libitum.
Surgery—Spinal Nerve Ligation. Rats were anesthetized with 3.5% halothane in O2 at 1 L/min and maintained with 1.5% halothane in O2 during surgery. Ligation of the L5 and L6 nerves was produced by an incision through the left paraspinal muscles. The left L5 and L6 spinal nerves were isolated adjacent to the vertebral column and ligated tightly with 6-0 silk suture just distal to the dorsal root ganglion. The wound was closed in layers using 4-0 silk suture and wound clips. Testing began 7 days after surgery.
Assessment of tactile hypersensitivity. […] Baseline tactile sensitivity was assessed using a series of calibrated von Frey monofilaments (Stoelting; Wood Dale, Ill.) 0 to 3 days before surgery. […] The ability of a single dose of test compound to reverse established hypersensitivity was assessed using a time course procedure. […]
Results are presented as the 50% threshold values (50% threshold in g force) estimated by the Dixon non-parametric test. […] Significant main effects were analyzed further by subsequent least significant difference analysis. […]

In experiment [2] the target is T1, human dopamine transporter (hDAT) (Homo sapiens, UniProt Q01959).
T1 construct: purchased Perkin Elmer RBHDATM
T1 sequence (Q01959 whole entry): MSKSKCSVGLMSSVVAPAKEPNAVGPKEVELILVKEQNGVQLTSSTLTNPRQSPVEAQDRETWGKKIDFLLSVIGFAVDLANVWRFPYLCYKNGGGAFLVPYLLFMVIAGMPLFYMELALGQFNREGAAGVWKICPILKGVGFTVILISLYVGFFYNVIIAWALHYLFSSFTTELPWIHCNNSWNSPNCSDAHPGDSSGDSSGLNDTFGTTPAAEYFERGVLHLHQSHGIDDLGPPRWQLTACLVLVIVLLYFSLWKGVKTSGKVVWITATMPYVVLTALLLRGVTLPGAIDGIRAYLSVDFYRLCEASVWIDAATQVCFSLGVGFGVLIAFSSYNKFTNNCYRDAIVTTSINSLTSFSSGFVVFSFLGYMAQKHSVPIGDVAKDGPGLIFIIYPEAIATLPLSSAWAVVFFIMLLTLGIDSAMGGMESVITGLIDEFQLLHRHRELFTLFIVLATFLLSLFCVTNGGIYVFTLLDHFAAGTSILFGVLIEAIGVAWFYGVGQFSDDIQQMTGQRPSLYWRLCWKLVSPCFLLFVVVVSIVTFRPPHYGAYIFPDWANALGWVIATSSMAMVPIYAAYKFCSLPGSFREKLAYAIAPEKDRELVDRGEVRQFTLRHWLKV
Put plainly: Dopamine transporter (hDAT) membrane binding assay. On the procedure: (§1) MDCK-Net6 cells, stably transfected with human hNET [15] were cultured in growth medium containing high glucose DMEM (Gibco, Cat. No. 11995), 10% FBS (dialyzed, heat-inactivated, US Bio-Technologies, Lot FBD1129HI) and 500 μg/ml G418 (Gibco, Cat. No. 10131). Cells were plated at 300,000/T75 flask and cells were split twice weekly. The JAR cell line (human placental choriocarcinoma) was purchased from ATCC (Cat. No. HTB-144). The cells were cultured in growth medium containing RPMI 1640 (Gibco, Cat. No. 72400), 10% FBS (Irvine, Cat. No. 3000), 1% sodium pyruvate (Gibco, Cat. No. 1136) and 0.25% glucose. Cells were plated at 250,000 cells/T75 flask and split twice weekly. For cell based assays, cells were plated in Wallac 96-well sterile plates (Perkin Elmer, Cat. No. 3983498). For the human dopamine transporter (hDAT) binding assay, membranes from cells expressing recombinant hDAT are purchased from Perkin Elmer (Cat. No. RBHDATM, Lot#2227) and maintained at −80° C. until assay day.
For each experiment, a data stream of cpm values collected from the Wallac Microbeta counter was downloaded to a Microsoft Excel statistical application program. Calculations of IC50/EC50 values were made using the transformed-both-sides logistic dose response program written by Wyeth Biometrics Department.

Experiment [3] concerns ovariectomized (OVX) rats. Put plainly: Telemetry rat model of ovariectomy-induced thermoregulatory dysfunction (tail skin temperature). In kind it is in vivo. Conditions: 30 mg/kg, sc. From the text: This model has been modified from a previously reported protocol describing estrogen regulation of diurnal tail skin temperature (TST) patterns (Berendsen, et al., European Journal of Pharmacology, 2001, 419(1): 47-54). […] A temperature and physical activity transmitter (PhysioTel TA10TA-F40, Data Sciences International) was implanted subcutaneously in the dorsal scapular region and the tip of the temperature probe was tunneled subcutaneously 2.5 cm beyond the base of the tail. After a 7-day recovery period, TST readings were continuously recorded for the remainder of the study. Tail skin temperature readings were collected from each animal every 5 minutes with values obtained over a 10 second sampling period. The day before test day, an average baseline TST value was calculated for each animal by averaging temperature readings recorded during the 12 hour active (dark) phase. […]
Statistical analysis: Evaluation of a compound's ability to restore normal lowering of TST in the telemetry model was analyzed using hourly TST values calculated for each animal by averaging the 12 temperature readings obtained every 5 minutes over that recording time. […]
The effect of test compound is measured by evaluating the following parameters in this model: onset of action, duration of effect on TST, maximal change in TST and mean change in TST over the duration of the compound effect.

Experiment [4] has as its target human norepinephrine transporter (hNET) (Homo sapiens, UniProt P23975). Description: cell-based. The procedure:
as §1
On day 1, cells were plated at 3,000 cells/well in growth medium and maintained in a cell incubator (37° C., 5% CO2). […] The plates were counted in a Wallac Microbeta counter (PerkinElmer) to collect the raw cpm data. […]

In experiment [5] the target is T2, human serotonin transporter (hSERT) (Homo sapiens, UniProt P31645).
T2 construct: The methods for 5-HT functional reuptake using the JAR cell line; host or cells: JAR (human placental choriocarcinoma), staurosporine-stimulated
T2 sequence (P31645 whole entry): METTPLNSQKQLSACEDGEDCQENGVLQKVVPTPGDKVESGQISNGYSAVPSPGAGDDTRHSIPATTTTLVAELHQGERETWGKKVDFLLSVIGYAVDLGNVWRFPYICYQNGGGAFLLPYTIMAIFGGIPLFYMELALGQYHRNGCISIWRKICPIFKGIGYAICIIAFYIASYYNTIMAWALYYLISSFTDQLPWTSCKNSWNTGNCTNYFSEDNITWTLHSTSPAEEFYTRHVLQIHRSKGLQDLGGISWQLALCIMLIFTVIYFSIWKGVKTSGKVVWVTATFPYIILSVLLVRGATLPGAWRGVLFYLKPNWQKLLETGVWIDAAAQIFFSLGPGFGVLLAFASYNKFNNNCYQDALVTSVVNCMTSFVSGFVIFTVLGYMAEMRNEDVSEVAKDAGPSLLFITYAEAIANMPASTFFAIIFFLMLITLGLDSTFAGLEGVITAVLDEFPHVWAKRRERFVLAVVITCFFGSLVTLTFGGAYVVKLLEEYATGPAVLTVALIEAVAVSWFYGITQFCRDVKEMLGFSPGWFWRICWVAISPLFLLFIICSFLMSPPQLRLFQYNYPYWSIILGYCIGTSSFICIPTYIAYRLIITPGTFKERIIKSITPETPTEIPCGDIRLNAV
Put plainly: Serotonin (5-HT) uptake assay in JAR cells. Conditions: [3H]5-HT uptake, read-out: hSERT function uptake (EC50 in nm). In kind it is cell-based. On the procedure: as §1
The methods for 5-HT functional reuptake using the JAR cell line were modified using a previous literature report. On day 1, cells were plated at 15,000 cells/well in 96-well plates containing growth medium (RPMI 1640 with 10% FBS) and maintained in a cell incubator (37° C., 5% CO2). […] The plates were counted in a Wallac Microbeta counter (PerkinElmer) to collect the raw cpm data. […]

This note sets out measurements from patent US20070021488A1, “Method for treating nervous system disorders and conditions” (Wyeth, priority 2005, published 2007).

The EC50 is the concentration needed to bring the measured effect to its halfway point.

Where “and” joins values, the source holds several entries; their conditions need not be identical. Equal entries are not always repeated.

Chain of human norepinephrine transporter (hNET) (P23975 whole entry): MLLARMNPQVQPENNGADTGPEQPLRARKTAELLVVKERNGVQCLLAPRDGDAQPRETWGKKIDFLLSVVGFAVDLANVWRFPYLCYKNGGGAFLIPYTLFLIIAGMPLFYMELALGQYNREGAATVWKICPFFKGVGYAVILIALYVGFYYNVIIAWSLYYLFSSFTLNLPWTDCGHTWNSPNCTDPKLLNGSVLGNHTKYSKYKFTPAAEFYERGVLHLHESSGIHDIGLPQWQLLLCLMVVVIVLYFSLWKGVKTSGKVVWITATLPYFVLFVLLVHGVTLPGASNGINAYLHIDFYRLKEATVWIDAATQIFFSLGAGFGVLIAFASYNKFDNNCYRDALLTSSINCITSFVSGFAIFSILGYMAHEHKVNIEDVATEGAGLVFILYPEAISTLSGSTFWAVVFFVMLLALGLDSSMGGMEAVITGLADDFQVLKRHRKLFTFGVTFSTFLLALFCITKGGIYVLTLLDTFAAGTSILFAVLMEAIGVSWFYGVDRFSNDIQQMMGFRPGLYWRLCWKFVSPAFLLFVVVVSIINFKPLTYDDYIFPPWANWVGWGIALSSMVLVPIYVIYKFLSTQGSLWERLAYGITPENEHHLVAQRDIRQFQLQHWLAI

With `Clc1ccc(C23CNCC2C3)cc1Cl` (racemic) [Racemic 1-(3,4-dichlorophenyl)-3-azabicyclo[3.1.0]hexane, 1-(3,4-dichlorophenyl)-3-azabicyclo[3.1.0]hexane], the “Reversal of tactile allodynia in the SNL neuropathic pain model” value in experiment [1] is recorded as “significantly reverses tactile allodynia”.

Consider `Cc1ccc(C23CNCC2C3)cc1` (racemic) [Racemic 1-(4-methylphenyl)-3-azabicyclo[3.1.0]hexane, 1-(4-methylphenyl)-3-azabicyclo[3.1.0]hexane], for which the “hDAT binding (% I at 1 μM)” value in experiment [2] (1 μM) turned out to be 26.5 % I. In experiment [2], the “hDAT binding (% I at 10 μM)” value was 45 % I and 52.1 % I. The “Restoration of normal TST in OVX-induced thermoregulatory dysfunction telemetry model” value in experiment [3] is recorded as “restores normal TST”.

Regarding `Cc1ccc([C@@]23CNC[C@@H]2C3)cc1` (single isomer, unassigned) [(+)-1-(4-methylphenyl)-3-azabicyclo[3.1.0]hexane], the EC50 in experiment [4] was found to be 0.148 µM; in experiment [5], 7.35 µM. Further, the “hDAT binding (% I at 10 μM)” value in experiment [2] is on record as 51 % I. Also, the “Restoration of normal TST in OVX-induced thermoregulatory dysfunction telemetry model” value in experiment [3] is reported as “restores normal TST”.
